Read-outs that look alike come from different tables or passages of the source.
Key:
in vitro = conditions: human
[1] = test system: 3D7 P. falciparum parasites; experiment: Growth inhibition assay (72 h, LDH activity); assay type: cell-based, Plasmodium falciparum; conditions: for EC50: Plasmodium falciparum
Protocol: Parasite growth assays with inhibitory compounds were performed as per[11] and are fully described in the Supplementary Information. […]
Growth inhibition assays. Synchronised ring-stage parasites (0.3-0.6% parasitemia, 2% haematocrit) were grown for 72 h in a serial-dilution of the compound under […]
and compound 4. Note that M-833 was first purchased from MolPort (MolPort -002-267-916) then made in-house at WEHI: the differences observed in EC50s across experiments are attributed to the different batches of M -833. For some experiments, 0, 0.25 or 2.5 mM of glucosamine (GlcN) was also added. Experiments were set up in technical duplicates or triplicates. Following a freeze -thaw cycle, lactate dehydrogenase (LDH) activity was assessed as an indicator of parasite growt h 5. 30 μL of parasite culture was incubated for 30 min in the dark with 75 μL Malstat mixture (0.1 M Tris pH 9.0, 20 g/L lactic acid, pH 7.5, 0.2% Triton-X100, 0.5 g/L acetylpyridine adenine dinucleotide (APAD, Sigma), 200 μg/mL nitroblue tetrazolium (NBT; Sigma), 1 μg/mL phenozine ethosulfate (PES; Sigma)). Absorbance was then measured at 650 nm, transformed using the formula below, plotted against the logarithm of the concentrations, and a non-linear regression (log(inhibitor) vs. response, variable slope) was calculated using GraphPad Prism to assess the half-inhibitory […]
Growth inhibition % = (1 − average(sample)− average(uRBC)) ∗ 100 […]
The DMSO samples were also used to assess growth of parasite in the presence of 0.25 and 2.5 mM GlcN (normalised by DMSO in 0 mM GlcN). […]

In the case of `O=C(CNc1ccc(Cl)c(S(=O)(=O)N2CCOCC2)c1)Nc1ccc(F)c(Cl)c1` [compound 2, reference compound], the CC50 (in vitro) is reported as over 40000 nM, the “(av-uRBC) / (DMSO-uRBC) x100” value ([1]; 3D7, conc. 3.04832 nM, Biological replicate 1 (2021-10-25)) is reported as 101.583 and the “(av-uRBC) / (DMSO-uRBC) x100” value ([1]; 3D7, conc. 3.04832 nM, Biological replicate 2 (2021-11-03)) is reported as 104.234. The “(av-uRBC) / (DMSO-uRBC) x100” value ([1]; 3D7, conc. 3.04832 nM, Biological replicate 3 (2021-11-11)) was 118.798, the “(av-uRBC) / (DMSO-uRBC) x100” value ([1]; 3D7, conc. 9.14495 nM, Biological replicate 1 (2021-10-25)) was 98.3522 and the “(av-uRBC) / (DMSO-uRBC) x100” value ([1]; 3D7, conc. 9.14495 nM, Biological replicate 2 (2021-11-03)) was 106.026. For the same compound, the “(av-uRBC) / (DMSO-uRBC) x100” value ([1]; 3D7, conc. 9.14495 nM, Biological replicate 3 (2021-11-11)) was 112.58, the “(av-uRBC) / (DMSO-uRBC) x100” value ([1]; 3D7, conc. 27.4348 nM, Biological replicate 1 (2021-10-25)) was 92.7855 and the “(av-uRBC) / (DMSO-uRBC) x100” value ([1]; 3D7, conc. 27.4348 nM, Biological replicate 2 (2021-11-03)) was 105.906. For the same compound, the “(av-uRBC) / (DMSO-uRBC) x100” value ([1]; 3D7, conc. 27.4348 nM, Biological replicate 3 (2021-11-11)) was 106.329, the “(av-uRBC) / (DMSO-uRBC) x100” value ([1]; 3D7, conc. 82.3045 nM, Biological replicate 1 (2021-10-25)) was 76.9881 and the “(av-uRBC) / (DMSO-uRBC) x100” value ([1]; 3D7, conc. 82.3045 nM, Biological replicate 2 (2021-11-03)) was 101.625. The “(av-uRBC) / (DMSO-uRBC) x100” value ([1]; 3D7, conc. 82.3045 nM, Biological replicate 3 (2021-11-11)) was 81.2348, the “(av-uRBC) / (DMSO-uRBC) x100” value ([1]; 3D7, conc. 246.914 nM, Biological replicate 1 (2021-10-25)) was 38.3866 and the “(av-uRBC) / (DMSO-uRBC) x100” value ([1]; 3D7, conc. 246.914 nM, Biological replicate 2 (2021-11-03)) was 48.8275. For the same compound, the “(av-uRBC) / (DMSO-uRBC) x100” value ([1]; 3D7, conc. 246.914 nM, Biological replicate 3 (2021-11-11)) was 35.6638, the “(av-uRBC) / (DMSO-uRBC) x100” value ([1]; 3D7, conc. 740.741 nM, Biological replicate 1 (2021-10-25)) was 12.6522 and the “(av-uRBC) / (DMSO-uRBC) x100” value ([1]; 3D7, conc. 740.741 nM, Biological replicate 2 (2021-11-03)) was 13.3573. For the same compound, the “(av-uRBC) / (DMSO-uRBC) x100” value ([1]; 3D7, conc. 740.741 nM, Biological replicate 3 (2021-11-11)) was 9.565, the “(av-uRBC) / (DMSO-uRBC) x100” value ([1]; 3D7, conc. 2222.22 nM, Biological replicate 1 (2021-10-25)) was 9.471 and the “(av-uRBC) / (DMSO-uRBC) x100” value ([1]; 3D7, conc. 2222.22 nM, Biological replicate 2 (2021-11-03)) was 10.1641. The “(av-uRBC) / (DMSO-uRBC) x100” value ([1]; 3D7, conc. 2222.22 nM, Biological replicate 3 (2021-11-11)) was 7.82, the “(av-uRBC) / (DMSO-uRBC) x100” value ([1]; 3D7, conc. 6666.67 nM, Biological replicate 1 (2021-10-25)) was 8.762 and the “(av-uRBC) / (DMSO-uRBC) x100” value ([1]; 3D7, conc. 6666.67 nM, Biological replicate 2 (2021-11-03)) was 10.3401. For the same compound, the “(av-uRBC) / (DMSO-uRBC) x100” value ([1]; 3D7, conc. 6666.67 nM, Biological replicate 3 (2021-11-11)) was 6.881, the “(av-uRBC) / (DMSO-uRBC) x100” value ([1]; 3D7, conc. 20000 nM, Biological replicate 1 (2021-10-25)) was 8.397 and the “(av-uRBC) / (DMSO-uRBC) x100” value ([1]; 3D7, conc. 20000 nM, Biological replicate 2 (2021-11-03)) was 8.683. The “(av-uRBC) / (DMSO-uRBC) x100” value ([1]; 3D7, conc. 20000 nM, Biological replicate 3 (2021-11-11)) was 3.998, the EC50 ([1]; 3D7, 72 h, Supplementary Table 1, 3D7, 72 h, read-out: EC50) was 171 nM and the EC50 ([1]; 3D7, Fig 4A, 3D7 parasites, read-out: Pf 3D7 EC50 (SD)) was 140 nM.

— paper PMC11189555, “Aryl amino acetamides prevent Plasmodium falciparum ring development via targeting the lipid-transfer protein PfSTART1” (Nature Communications, 2024)
